Assay results from patent publication US8703804B2, “Ryanodine receptor inhibitors and methods relating thereto” (UTI Limited Partnership, priority 2006, dated 2014).
pIC50: −log10 of the molar value. “Also recorded” adds a separate entry of the source. Like-named read-outs stand apart in the source and are kept apart here.

Experiments:
RyR2 = assay: Initial investigations studying RyR2: suppression of SOICR by analogues; type: cell-based
[1] = patients with heart failure; Miller, 2003; cited from earlier work
RyR2-R4496C KI mice = assay: Stress-induced ventricular tachycardia in RyR2-R4496C knock-in mice (CPVT model); type: in vivo, mouse; conditions: 16 mg/kg/day i.p. for 5 days, preliminary
Method: The electrocardiograms (ECG) of the R4496C KI mice were continuously monitored by using telemetric ECG recordings before and after the injection of epinephrine and caffeine. The incidence of ventricular tachycardia (VT) was assessed by determining the duration of VT occurring during a 2-min period (% of time).
In order to assess the efficacy of compounds of the present invention in suppressing cardiac arrhythmia at the animal level, genetically engineered knock-in mice were generated harboring RyR2 mutations that are associated with cardiac arrhythmia and sudden death. A heterozygous knock-in mouse line harboring the disease-causing RyR2 mutation, R4496C, has been prepared. Similar to patients who carry the mutation, the R4496C mutant mice are likely prone to stress-induced cardiac arrhythmia and sudden death. If this is the case, this R4496C mouse model may be used to test if compounds of the present invention are able to reduce the incidence of stress-induced cardiac arrhythmia and sudden death. Briefly, mutant mice will be pretreated with or without a positive compound identified above. Epinephrine and caffeine will be injected into the mutant mice to induce cardiac arrhythmia. Telemetric ECG recordings will be used to monitor the cardiac activity at rest and during epinephrine and caffeine perfusion. […]

[2] = tested on: SOICR in rat ventricular myocytes; assay: SOICR in rat ventricular myocytes (single cell Ca2+ imaging, fluo-4); type: cell-based; conditions: for pIC50: Rattus norvegicus, Ventricular myocyte
Method: Rat ventricular myocytes were loaded with a fluorescent Ca^2+ indicator, fluo 4-AM, and incubated at a high concentration of external Ca^2+ (10 mM) to induced SR Ca^2+ overload and SOICR, which manifests as Ca^2+ oscillations.
In the experiments shown in FIG. 3, rat ventricular myocytes were loaded with a fluorescent Ca^2+ indicator, fluo-4, and incubated at a high concentration of extracellular Ca^2+ (10 mM) to induce SR Ca^2+ overload and SOICR, which manifests as Ca^2+ waves/oscillations. These Ca^2+ oscillations were monitored by a single cell Ca^2+ imaging technique.
(§1) Further verification of whether these identified compounds also work in cardiac cells, the effect of these compounds on SOICR in rat ventricular myocytes may also be determined. Rat ventricular myocytes may be isolated according to the standard procedure using enzymatic digestion. Freshly isolated cells are loaded with a fluorescent Ca^2+ dye, fluo 4-AM, and bathed at high concentrations of extracellular Ca^2+ (5-10 mM) to induce SR Ca^2+ overload and SOICR. The intracellular Ca^2+ transients as a result of SOICR will be monitored by measuring the fluorescent intensity using a fluorescent microscope. Various concentrations of the selected compounds (10 nM to 100 μM) will be applied and the resulting changes in intracellular Ca^2+ transients will be determined and analyzed.

β-adrenergic receptor = assay: β-blocking: isoproterenol-induced phosphorylation of RyR2 at serine-2030 in rat cardiac myocytes (Western blot); type: cell-based; conditions: 200 nM isoproterenol; for concentration that completely blocks the β-adrenergic receptor: S2030 phosphorylation
Method: The β-adrenergic receptors were then stimulated by the addition of 200 nM isoproterenol (Iso) in the continued presence of drugs for 30 min at 37° C. Whole cell lysates were prepared and used for Western blotting (WB) analyses.
It is known that stimulation of the β-adrenergic receptor (AR) by isoproterenol leads to the activation of the cAMP/protein kinase A (PKA) signaling pathway, which, in turn, results in the phosphorylation by PKA of various protein targets, including the RyR2 channel. RyR2 is specifically phosphorylated at the residue serine-2030 (S2030) upon β-AR stimulation by isoproterenol (Xiao et al., 2005). […] To do this, freshly isolated rat cardiac myocytes are pre-treated with various concentrations of the selected compounds for 5 min, followed by stimulation of the β-AR with 100-200 nM isoproterenol in the continued presence of the selected compounds for 30 min. Whole cell lysates are then prepared and used for determining the level of phosphorylation of RyR2 at S2030 by Western blotting using a site- and phospho-specific antibody against the phosphorylated S2030 site.

β-adrenergic receptors = conditions: Yao et al., 2003; read-out: IC50 of β-blocking activity; cited from earlier work
RyR2 channel [3] = target: RyR2 channel (Homo sapiens, UniProt Q92736); conditions: Honen et al., 2003; cited from earlier work
Sequence of RyR2 channel (Homo sapiens, UniProt Q92736) (Q92736 whole entry): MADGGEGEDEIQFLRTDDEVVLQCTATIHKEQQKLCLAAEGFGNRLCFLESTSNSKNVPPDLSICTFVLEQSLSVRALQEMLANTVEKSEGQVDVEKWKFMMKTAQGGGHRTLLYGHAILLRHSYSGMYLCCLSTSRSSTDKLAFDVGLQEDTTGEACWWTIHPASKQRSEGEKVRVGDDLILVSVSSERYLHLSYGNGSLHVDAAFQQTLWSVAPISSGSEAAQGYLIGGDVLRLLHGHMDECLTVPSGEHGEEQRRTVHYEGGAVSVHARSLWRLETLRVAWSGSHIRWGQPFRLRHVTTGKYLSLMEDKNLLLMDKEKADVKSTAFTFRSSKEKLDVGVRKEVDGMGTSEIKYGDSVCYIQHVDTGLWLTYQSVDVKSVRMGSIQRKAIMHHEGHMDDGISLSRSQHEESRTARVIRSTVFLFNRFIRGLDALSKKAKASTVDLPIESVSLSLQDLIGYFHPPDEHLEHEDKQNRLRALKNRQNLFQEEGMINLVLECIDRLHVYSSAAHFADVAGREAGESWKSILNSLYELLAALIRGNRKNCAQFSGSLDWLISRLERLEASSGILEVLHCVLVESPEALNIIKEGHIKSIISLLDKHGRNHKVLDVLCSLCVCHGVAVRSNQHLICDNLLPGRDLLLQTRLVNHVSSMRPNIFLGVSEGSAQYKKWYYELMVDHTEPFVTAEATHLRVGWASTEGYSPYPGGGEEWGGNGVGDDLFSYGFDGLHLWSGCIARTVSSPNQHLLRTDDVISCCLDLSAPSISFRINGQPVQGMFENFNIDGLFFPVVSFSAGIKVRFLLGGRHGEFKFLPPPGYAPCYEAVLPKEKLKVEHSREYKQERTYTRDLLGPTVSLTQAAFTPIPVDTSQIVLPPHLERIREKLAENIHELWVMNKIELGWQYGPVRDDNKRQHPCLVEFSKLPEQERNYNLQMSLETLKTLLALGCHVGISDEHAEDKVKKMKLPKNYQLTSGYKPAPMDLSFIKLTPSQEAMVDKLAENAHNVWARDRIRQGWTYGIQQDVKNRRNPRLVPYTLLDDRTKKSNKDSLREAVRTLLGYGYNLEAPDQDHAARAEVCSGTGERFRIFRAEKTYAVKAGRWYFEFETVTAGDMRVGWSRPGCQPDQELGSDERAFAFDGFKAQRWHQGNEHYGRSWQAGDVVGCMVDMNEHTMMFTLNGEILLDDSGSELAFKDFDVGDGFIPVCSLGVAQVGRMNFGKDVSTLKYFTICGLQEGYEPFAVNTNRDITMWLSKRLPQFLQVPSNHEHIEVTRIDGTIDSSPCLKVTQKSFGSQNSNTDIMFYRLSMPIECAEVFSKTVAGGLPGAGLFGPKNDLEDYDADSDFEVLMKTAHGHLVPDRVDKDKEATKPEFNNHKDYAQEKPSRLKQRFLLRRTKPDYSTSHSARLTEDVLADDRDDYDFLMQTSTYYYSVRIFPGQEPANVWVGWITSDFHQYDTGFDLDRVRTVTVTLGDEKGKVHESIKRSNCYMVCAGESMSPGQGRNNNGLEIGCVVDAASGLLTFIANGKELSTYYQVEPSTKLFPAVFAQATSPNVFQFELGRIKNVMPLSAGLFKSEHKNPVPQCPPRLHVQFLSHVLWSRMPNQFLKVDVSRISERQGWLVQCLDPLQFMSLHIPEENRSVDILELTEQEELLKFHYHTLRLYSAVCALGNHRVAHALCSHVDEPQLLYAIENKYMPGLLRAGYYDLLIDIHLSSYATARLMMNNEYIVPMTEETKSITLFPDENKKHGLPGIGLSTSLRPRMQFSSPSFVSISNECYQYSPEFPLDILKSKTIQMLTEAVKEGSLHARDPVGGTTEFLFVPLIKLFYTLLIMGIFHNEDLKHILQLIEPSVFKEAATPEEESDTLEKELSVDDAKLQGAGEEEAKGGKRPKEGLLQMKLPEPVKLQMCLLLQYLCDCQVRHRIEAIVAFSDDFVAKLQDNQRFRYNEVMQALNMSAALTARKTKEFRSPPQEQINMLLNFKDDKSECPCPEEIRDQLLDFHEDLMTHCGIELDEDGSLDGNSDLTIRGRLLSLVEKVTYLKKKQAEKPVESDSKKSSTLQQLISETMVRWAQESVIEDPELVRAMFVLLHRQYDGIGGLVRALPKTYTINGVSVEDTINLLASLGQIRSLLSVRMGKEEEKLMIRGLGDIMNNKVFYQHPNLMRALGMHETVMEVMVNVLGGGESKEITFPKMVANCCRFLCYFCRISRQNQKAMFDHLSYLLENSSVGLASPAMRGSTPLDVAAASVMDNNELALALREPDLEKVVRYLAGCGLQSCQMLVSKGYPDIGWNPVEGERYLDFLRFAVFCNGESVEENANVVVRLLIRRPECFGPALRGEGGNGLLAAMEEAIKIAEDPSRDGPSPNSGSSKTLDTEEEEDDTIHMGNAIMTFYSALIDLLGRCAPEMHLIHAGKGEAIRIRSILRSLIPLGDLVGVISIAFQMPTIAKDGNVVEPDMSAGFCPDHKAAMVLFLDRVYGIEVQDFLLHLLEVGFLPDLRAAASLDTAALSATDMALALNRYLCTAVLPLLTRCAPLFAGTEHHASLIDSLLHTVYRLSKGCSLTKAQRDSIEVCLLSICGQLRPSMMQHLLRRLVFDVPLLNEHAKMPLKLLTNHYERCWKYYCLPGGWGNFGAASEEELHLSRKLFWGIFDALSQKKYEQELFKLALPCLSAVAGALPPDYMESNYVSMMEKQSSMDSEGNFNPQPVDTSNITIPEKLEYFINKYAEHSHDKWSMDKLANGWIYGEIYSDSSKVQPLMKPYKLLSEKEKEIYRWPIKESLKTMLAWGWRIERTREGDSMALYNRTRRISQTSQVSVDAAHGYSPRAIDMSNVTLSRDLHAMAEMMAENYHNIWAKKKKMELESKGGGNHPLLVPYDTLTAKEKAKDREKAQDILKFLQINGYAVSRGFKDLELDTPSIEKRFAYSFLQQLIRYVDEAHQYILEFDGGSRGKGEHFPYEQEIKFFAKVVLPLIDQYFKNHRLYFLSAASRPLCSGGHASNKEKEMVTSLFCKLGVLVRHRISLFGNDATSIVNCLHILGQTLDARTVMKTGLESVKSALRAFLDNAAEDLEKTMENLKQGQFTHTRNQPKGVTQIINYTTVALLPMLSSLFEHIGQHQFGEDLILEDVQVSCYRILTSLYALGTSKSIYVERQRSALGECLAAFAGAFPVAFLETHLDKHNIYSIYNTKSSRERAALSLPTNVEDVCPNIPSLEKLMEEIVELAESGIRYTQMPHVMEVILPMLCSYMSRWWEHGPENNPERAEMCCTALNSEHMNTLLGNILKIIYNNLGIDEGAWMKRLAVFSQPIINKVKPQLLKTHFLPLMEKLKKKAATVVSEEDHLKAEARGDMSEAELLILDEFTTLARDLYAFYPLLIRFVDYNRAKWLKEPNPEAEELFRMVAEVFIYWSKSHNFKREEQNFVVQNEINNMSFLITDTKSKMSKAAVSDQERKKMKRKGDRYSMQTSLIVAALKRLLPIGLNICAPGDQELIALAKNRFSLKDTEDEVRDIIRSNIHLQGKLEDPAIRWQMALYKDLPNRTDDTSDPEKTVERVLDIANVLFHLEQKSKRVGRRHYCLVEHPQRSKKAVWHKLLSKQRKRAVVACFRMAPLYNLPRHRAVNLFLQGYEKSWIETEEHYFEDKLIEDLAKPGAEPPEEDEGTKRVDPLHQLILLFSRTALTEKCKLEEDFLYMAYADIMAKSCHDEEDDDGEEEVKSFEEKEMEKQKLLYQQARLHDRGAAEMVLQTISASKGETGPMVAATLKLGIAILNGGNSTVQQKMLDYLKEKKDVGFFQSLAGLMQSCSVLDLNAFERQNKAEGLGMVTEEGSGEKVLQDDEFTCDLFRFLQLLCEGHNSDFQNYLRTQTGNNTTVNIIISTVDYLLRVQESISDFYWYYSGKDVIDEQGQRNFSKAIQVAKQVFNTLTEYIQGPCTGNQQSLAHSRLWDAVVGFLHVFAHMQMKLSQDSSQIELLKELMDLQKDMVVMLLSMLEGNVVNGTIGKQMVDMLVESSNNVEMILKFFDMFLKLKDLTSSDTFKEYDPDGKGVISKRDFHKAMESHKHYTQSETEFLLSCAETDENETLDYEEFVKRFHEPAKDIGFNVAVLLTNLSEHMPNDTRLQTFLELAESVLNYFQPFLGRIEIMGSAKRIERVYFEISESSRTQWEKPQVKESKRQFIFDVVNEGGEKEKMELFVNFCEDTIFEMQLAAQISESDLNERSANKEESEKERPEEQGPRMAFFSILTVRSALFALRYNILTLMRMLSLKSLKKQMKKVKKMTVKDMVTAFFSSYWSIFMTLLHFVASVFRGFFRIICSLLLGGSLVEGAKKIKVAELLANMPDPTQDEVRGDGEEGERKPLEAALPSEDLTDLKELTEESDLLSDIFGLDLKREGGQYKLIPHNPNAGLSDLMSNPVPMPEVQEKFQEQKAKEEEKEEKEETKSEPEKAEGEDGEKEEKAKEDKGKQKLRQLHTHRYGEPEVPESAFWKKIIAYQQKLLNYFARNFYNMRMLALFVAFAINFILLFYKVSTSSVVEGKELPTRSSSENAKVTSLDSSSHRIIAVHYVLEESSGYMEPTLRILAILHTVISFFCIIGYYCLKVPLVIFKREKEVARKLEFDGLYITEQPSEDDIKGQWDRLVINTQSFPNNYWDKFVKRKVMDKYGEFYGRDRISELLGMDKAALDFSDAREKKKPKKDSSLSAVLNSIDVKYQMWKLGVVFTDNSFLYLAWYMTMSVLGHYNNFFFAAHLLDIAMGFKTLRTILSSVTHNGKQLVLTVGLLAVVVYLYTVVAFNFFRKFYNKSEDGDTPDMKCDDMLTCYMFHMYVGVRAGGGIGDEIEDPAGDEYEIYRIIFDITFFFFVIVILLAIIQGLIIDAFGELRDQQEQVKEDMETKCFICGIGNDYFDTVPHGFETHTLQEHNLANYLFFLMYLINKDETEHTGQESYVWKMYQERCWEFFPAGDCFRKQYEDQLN

RyR2 channel [4] = target: T1, RyR2 channel (Mus musculus, UniProt E9Q401, R4495C); assay: Ca2+ dependence of [3H]ryanodine binding (sensitivity of RyR2 to Ca2+ activation, CICR); type: biochemical; conditions: 300 μM (FIG. 4D)
T1 construct: expressed in transfected cells; host or cells: HEK293 (cell lysate, detergent-solubilised)
Excerpt: (§2) Intracellular Ca^2+ transients were monitored using single cell Ca^2+ imaging.
Alternatively, the effect of compounds on CICR may be determined using [^3H]ryanodine binding. As CICR is dependent, to a large extent, on the sensitivity of the RyR2 channel to activation by Ca^2+, the effect of a compound on CICR may be determined by assessing the impact of the compound on the sensitivity of the RyR2 channel to Ca^2+ activation. To this end, [^3H]ryanodine binding to the RyR2 channel in a wide range of Ca^2+ concentrations may be measured. The sensitivity (EC50) of [^3H]ryanodine binding to RyR2 in the absence and presence of a particular compound may be determined.

mutant RyR2 channels = target: T2, mutant RyR2 channels (Mus musculus, UniProt E9Q401, R4495C); assay: [3H]ryanodine binding, basal channel activity of RyR2; type: biochemical
T2 construct: expressed in transfected cells; host or cells: HEK293 (cell lysate, detergent-solubilised)
Excerpt: as §2
[^3H]Ryanodine binding has been widely used as a functional assay for assessing the activity of the RyR2 channel. […] These [^3H]ryanodine binding studies reveal whether suppression of SOICR by a compound is mediated by inhibition of the RyR2 channel activity.

RyR2-R4496C mutant = target: T3, RyR2-R4496C mutant (Mus musculus, UniProt E9Q401, R4495C); assay: SOICR in HEK293 cells expressing RyR2-R4496C mutant (fura-2 single cell Ca2+ imaging); type: cell-based; conditions: up to 500 μM
T3 construct: expressed in transfected cells; host or cells: HEK293
Excerpt: as §2
This bioassay takes advantage of the finding that HEK293 cells expressing RyR2 mutants associated with cardiac arrhythmia and sudden death, readily display SOICR at elevated extracellular Ca^2+. […] This assay may be employed to determine the dose-dependent effect of each proposed compound on SOICR.
(§3) HEK293 cells may be loaded with a fluorescent Ca^2+ dye, fura-2-AM. SOICR, which manifests in the form of Ca^2+ oscillations, is continuously monitored by measuring the fluorescent changes using the single cell Ca^2+ imaging technique. Cells will be perfused with increasing concentrations (10 nM to 100 μM) of the compound. The frequency and amplitude of Ca^2+ oscillations under each condition will be determined and analyzed. Compounds that inhibit SOICR are expected to reduce the frequency of Ca^2+ oscillations, or abolish Ca^2+ oscillations.

RyR2-N4104K mutant = target: T4, RyR2-N4104K mutant (Mus musculus, UniProt E9Q401, N4103K); assay: SOICR in HEK293 cells expressing the N4104K RyR2 mutant; type: cell-based
T4 construct: expressed in transfected cells; host or cells: HEK293
Method: as §2, §3
as §1, with “Freshly isolated cells are loaded with a fluorescent Ca^2+ dye, fluo 4-AM, and bathed at high concentrations of extracellular Ca^2+ (5-10 mM) to induce SR Ca^2+ overload and SOICR.” left out

SMILES: COc1ccccc1OCCN1CC(COc2cccc3[nH]c4ccccc4c23)OC1=O (stereo not shown) [Compound 4a]
- suppression of SOICR (RyR2): limited effect

SMILES: COc1ccccc1OCCNCC(O)COc1cccc2[nH]c3ccccc3c12 (stereo not shown) [Carvedilol]
- absolute reduction in mortality [1]: ~7%
- ventricular tachycardia after epinephrine (2 mg/kg) and caffeine (120 mg/kg) (RyR2-R4496C KI mice): abolish epinephrine and caffeine-induced ventricular tachycardia; also recorded: no VT was observed
- pIC50 ([2]; read-out: IC50 for suppressing SOICR): ~5.00
- pIC50 ([2]; read-out: IC50 for suppressing the frequency of SOICR): ~5.00
- concentration that abolishes SOICR ([2]; rat ventricular myocytes, 10 mM extracellular Ca2+): 50 µM
- concentration that completely blocks the β-adrenergic receptor (β-adrenergic receptor): 100 nM
- pIC50 (β-adrenergic receptors): 8.70 to 9.00

SMILES: CC/C=C\C/C=C\C/C=C\C/C=C\C/C=C\CCCC(=O)O [EPA, eicosapentenoic acid]
- effect on RyR2 channel activity (RyR2 channel [3]): inhibit RyR2 channel activity

SMILES: COc1cc(Cl)c(Cl)cc1OCCNCC(O)COc1cccc2[nH]c3ccccc3c12 (stereo not shown) [Compound 1b]
- suppression of SOICR (RyR2): activity comparable to that of carvedilol (1a)
- concentration that completely blocks the β-adrenergic receptor (β-adrenergic receptor): 100 nM

SMILES: c1ccc2c(c1)[nH]c1cccc(OCC3CN(CCOC4CCCCC4)CCO3)c12 (stereo not shown) [Compound 3d]
- suppression of SOICR (RyR2): limited effect

SMILES: OC(CNCCOC1CCCCC1)COc1cccc2[nH]c3ccccc3c12 (stereo not shown) [Compound 1d]
- suppression of SOICR (RyR2): inactive; also recorded: limited effect

SMILES: CC(C)NCC(O)c1ccc(NS(C)(=O)=O)cc1 (stereo not shown) [Sotalol, sotalol]
- effect on SOICR ([2]; rat ventricular myocytes, up to 300 μM): no effect; also recorded: does not suppress SOICR at all
- effect on Ca2+ dependence of [3H]ryanodine binding / sensitivity of RyR2 to Ca2+ activation (RyR2 channel [4]): no significant effect
- effect on basal channel activity ([3H]ryanodine binding) (mutant RyR2 channels; cell lysates, 3 nM Ca2+, various concentrations of drugs (FIG. 4C)): not sotalol, inhibited basal channel activity
- effect on channel activity of RyR2 (mutant RyR2 channels; summary statement): absolutely no effect on RyR2
- effect on SOICR (RyR2-R4496C mutant): no significant effect; also recorded: not sotalol inhibited SOICR

SMILES: COc1ccccc1OCCN1CC(COc2cccc3[nH]c4ccccc4c23)OCC1=O (stereo not shown) [Compound 2a]
- ventricular tachycardia after epinephrine (2 mg/kg) and caffeine (120 mg/kg) (RyR2-R4496C KI mice; listed as VK-II-36): abolish epinephrine and caffeine-induced ventricular tachycardia; also recorded: no VT was observed
- β-blocking activity (block of isoproterenol-induced RyR2 S2030 phosphorylation) (β-adrenergic receptor; 1-1000 nM, preliminary, listed as VK-II-36): little β-blocking activity; also recorded: does not block the β-adrenergic receptor
- effect on SOICR (RyR2-N4104K mutant; HEK293 RyR2-N4104K, 2 mM [Ca2+]o, various concentrations): abolish SOICR
- concentration at which SOICR is suppressed (RyR2-N4104K mutant; HEK293 cells (FIG. 5)): ~30 µM

SMILES: OC(CNCCOc1cc(Cl)c(Cl)cc1Cl)COc1cccc2[nH]c3ccccc3c12 (stereo not shown) [Compound 1c]
- suppression of SOICR (RyR2): inactive

SMILES: COc1ccccc1OCCN1CCOC(COc2cccc3[nH]c4ccccc4c23)C1 (stereo not shown) [Compound 3a]
- suppression of SOICR (RyR2): limited effect

SMILES: CC/C=C\C/C=C\C/C=C\C/C=C\C/C=C\C/C=C\CCC(=O)O [DHA, docosahexenoic acid]
- effect on RyR2 channel activity (RyR2 channel [3]): inhibit RyR2 channel activity
